What was measured:
E. coli JM109 = assay: Biofilm inhibition by asiatic acid; assay type: cell-based; conditions: Escherichia coli, JM 109, E. coli JM109, MC9 glucose media
Method: Inhibition of biofilm formation by E. coli K12 [R1drd19], P. aeruginosa PAO1, and V harveyi BB120 by the addition of 10 μg/mL ursolic acid. For E. coli K12 [R1drd19], data were collected 16 hours after addition of ursolic acid to a 24 hour biofilm in LB medium; for P. aeruginosa PAO1, data were collected 18 hours after addition of ursolic acid with inoculation in LB medium plus 1% sodium citrate; and for V. harveyi BB120, data were collected 18 hours after addition of ursolic acid with inoculation in M9 medium. All biofilm mass readings at OD540 were normalized based on the reading of wild type without ursolic acid which was normalized to 1. One standard deviation is shown.
Example 1 was repeated, except asiatic acid was added with inoculation in E. coli JM109 in MC9 glucose media.

E. coli JM109 genes = assay: DNA microarray, genes induced by asiatic acid; assay type: cell-based; conditions: M9C glucose media
Method: The same amount of ethanol was supplemented to eliminate solvent effects. The cultures were grown to an OD600 of 0.9. The cells were centrifuged in a microcentrifuge for 15 seconds at 20,000×g in mini bead beater tubes (Biospec, Bartlesville, Okla.) that were cooled to -80° C. before sampling. The cell pellets were flash frozen in a dry ice-ethanol bath and stored at -80° C. until RNA isolation. To lyse the cells, 1.0 mL RLT buffer (Qiagen, Inc., Valencia, Calif.) and 0.2 mL 0.1 mm zirconia/silica beads (Biospec) were added to the frozen bead beater tubes containing the cell pellets. The tubes were closed tightly and beat for 30 seconds at the maximum speed in a mini bead beater (cat. no. 3110BX, Biospec). The total RNA was isolated by following the protocol of the RNeasy Mini Kit (Qiagen) including an on-column DNase digestion with RNase-free DNase I (Qiagen). OD260 was used to quantify the RNA yield. OD260/OD280 and […]/16S rRNA were measured using a 2100 Bioanalyzer (Agilent Technologies, Palo Alto, Calif.) to check the purity and integrity of RNA (RNeasy Mini handbook, Qiagen). The E. coli DNA microarrays were prepared as described previously by Wei, Y. et al (Journal of Bacteriology, 2001, 183 (2) p. 545-556). […] The double-strand PCR products were denatured in 50% dimethyl sulfoxide and spotted onto aminosilane slides (Full Moon Biosystems, Sunnyvale, Calif.) as probes to hybridize with the mRNA-derived cDNA samples. It has been shown that each array can detect 4228 of the 4290 E. coli ORFs. Each gene has two spots per slide. Briefly, the total RNA from the E. coli K12 samples grown with and without ursolic acid was first converted into labeled cDNA. […] The Cy3-labeled sample without ursolic acid and the Cy5-labeled ursolic acid sample (with 10 or 30 μg/mL ursolic acid) were hybridized on the first slide. Similarly, the Cy5-labeled sample without ursolic acid and the Cy3-labeled ursolic acid sample were hybridized on the second slide. Since each gene has two spots on a slide, the two hybridizations generated eight data points for each gene (four points for the sample without ursolic acid and four points for the ursolic acid sample). The microarray experiments with dye-swapping were repeated for both concentrations of ursolic acid. […] The arrays were rinsed with double-distilled water and were spun dry by centrifugation. Labeled cDNA (6 μg) was concentrated to 10 μl of total volume and was mixed with 10 μl of 4×cDNA hybridization solution (Full Moon Biosystems) and 20 μl of formamide (EM Science, Gibbstown, N.J.). The hybridization mix was heated to 95° C. for 2 min and was added to the DNA microarrays; each array was covered with a coverslip (Corning, Big Flats, N.Y.) and was incubated overnight at 37° C. for hybridization. When the hybridization was finished, the coverslips were removed in 1×SSC-0.1% SDS at room temperature, and the arrays were washed once for 5 min in 1×SSC-0.1% SDS at 40° C., twice for 10 min in 0.1×SSC-0.1% SDS at 40° C., and twice for 1 min in 0.1×SSC at 40° C. The arrays were quickly rinsed by dipping in room-temperature double-distilled water and were then spun dry by centrifugation. The hybridized slides were scanned with the Generation III Array Scanner (Molecular Dynamics Corp.). Readings at 570 and 670 nm was used to quantify the probes labeled with Cy3 and Cy5 separately. The signal was quantified with Array Vision 4.0 or 6.0 software (Imaging Research, St. Catherines, Ontario, Canada). […] P-values were calculated on log-transformed, normalized intensities. Including the p-value criterion ensures the reliability of the induced/repressed gene list. Normalization was relative to the median total fluorescent intensity per slide per channel. Example 3 was repeated, except asiatic acid ([…]) was added instead of ursolic acid.

SMILES: C[C@H]1[C@H](C)CC[C@]2(C(=O)O)CC[C@]3(C)C(=CC[C@@H]4[C@@]5(C)C[C@@H](O)[C@H](O)[C@@](C)(CO)[C@@H]5CC[C@]43C)[C@H]12 [asiatic acid]
- inhibition at 5 µg/mL (E. coli JM109; 5 μg/ml): ~75%
- inhibition at 10 µg/mL (E. coli JM109; 10 μg/ml): ~80%
- inhibition at 15 µg/mL (E. coli JM109; 15 μg/ml): ~85%
- ER (expression ratio) gene b0829 (E. coli JM109 genes; 10 μg/mL asiatic acid): 2.83
- ER (expression ratio) gene b1729 (E. coli JM109 genes; 10 μg/mL asiatic acid): 2.64
- ER (expression ratio) gene b1963 (E. coli JM109 genes; 10 μg/mL asiatic acid): 2.14
- ER (expression ratio) gene b2332 (E. coli JM109 genes; 10 μg/mL asiatic acid): 2.14
- ER (expression ratio) gene b2420 (E. coli JM109 genes; 10 μg/mL asiatic acid): 4.29
- ER (expression ratio) gene b2531 (E. coli JM109 genes; 10 μg/mL asiatic acid): 2.46
- ER (expression ratio) gene b2670 (E. coli JM109 genes; 10 μg/mL asiatic acid): 3.25
- ER (expression ratio) gene b2834 (E. coli JM109 genes; 10 μg/mL asiatic acid): 2.30
- ER (expression ratio) gene bolA (E. coli JM109 genes; 10 μg/mL asiatic acid): 2.30
- ER (expression ratio) gene cbl (E. coli JM109 genes; 10 μg/mL asiatic acid): 13.93
- ER (expression ratio) gene cysA (E. coli JM109 genes; 10 μg/mL asiatic acid): 4.00
- ER (expression ratio) gene cysB (E. coli JM109 genes; 10 μg/mL asiatic acid): 6.06
- ER (expression ratio) gene cysC (E. coli JM109 genes; 10 μg/mL asiatic acid): 10.56
- ER (expression ratio) gene cysD (E. coli JM109 genes; 10 μg/mL asiatic acid): 6.96
- ER (expression ratio) gene cysH (E. coli JM109 genes; 10 μg/mL asiatic acid): 4.59
- ER (expression ratio) gene cysI (E. coli JM109 genes; 10 μg/mL asiatic acid): 4.29
- ER (expression ratio) gene cysJ (E. coli JM109 genes; 10 μg/mL asiatic acid): 3.73
- ER (expression ratio) gene cysK (E. coli JM109 genes; 10 μg/mL asiatic acid): 4.59
- ER (expression ratio) gene cysM (E. coli JM109 genes; 10 μg/mL asiatic acid): 3.73
- ER (expression ratio) gene cysN (E. coli JM109 genes; 10 μg/mL asiatic acid): 11.31
- ER (expression ratio) gene cysP (E. coli JM109 genes; 10 μg/mL asiatic acid): 4.29
- ER (expression ratio) gene cysU (E. coli JM109 genes; 10 μg/mL asiatic acid): 4.92
- ER (expression ratio) gene cysW (E. coli JM109 genes; 10 μg/mL asiatic acid): 4.59
- ER (expression ratio) gene dgt (E. coli JM109 genes; 10 μg/mL asiatic acid): 2.14
- ER (expression ratio) gene fliY (E. coli JM109 genes; 10 μg/mL asiatic acid): 4.00
- ER (expression ratio) gene ftn (E. coli JM109 genes; 10 μg/mL asiatic acid): 3.25
- ER (expression ratio) gene glgS (E. coli JM109 genes; 10 μg/mL asiatic acid): 2.14
- ER (expression ratio) gene iIvG_1 (E. coli JM109 genes; 10 μg/mL asiatic acid): 2.83
- ER (expression ratio) gene iIvL (E. coli JM109 genes; 10 μg/mL asiatic acid): 2.30
- ER (expression ratio) gene msrA (E. coli JM109 genes; 10 μg/mL asiatic acid): 2.30
- ER (expression ratio) gene nlpA (E. coli JM109 genes; 10 μg/mL asiatic acid): 18.38
- ER (expression ratio) gene pssR (E. coli JM109 genes; 10 μg/mL asiatic acid): 2.46
- ER (expression ratio) gene pstS (E. coli JM109 genes; 10 μg/mL asiatic acid): 2.64
- ER (expression ratio) gene sbp (E. coli JM109 genes; 10 μg/mL asiatic acid): 18.38
- ER (expression ratio) gene tauA (E. coli JM109 genes; 10 μg/mL asiatic acid): 2.46
- ER (expression ratio) gene yaeG (E. coli JM109 genes; 10 μg/mL asiatic acid): 4.59
- ER (expression ratio) gene yaiB (E. coli JM109 genes; 10 μg/mL asiatic acid): 2.30
- ER (expression ratio) gene ybgR (E. coli JM109 genes; 10 μg/mL asiatic acid): 2.46
- ER (expression ratio) gene ybiK (E. coli JM109 genes; 10 μg/mL asiatic acid): 6.50
- ER (expression ratio) gene yciW (E. coli JM109 genes; 10 μg/mL asiatic acid): 3.03
- ER (expression ratio) gene yedO (E. coli JM109 genes; 10 μg/mL asiatic acid): 3.73
- ER (expression ratio) gene yeeD (E. coli JM109 genes; 10 μg/mL asiatic acid): 3.73
- ER (expression ratio) gene yeeE (E. coli JM109 genes; 10 μg/mL asiatic acid): 3.25
- ER (expression ratio) gene ygbE (E. coli JM109 genes; 10 μg/mL asiatic acid): 6.96
- ER (expression ratio) gene yicG (E. coli JM109 genes; 10 μg/mL asiatic acid): 2.83
- ER (expression ratio) gene yicL (E. coli JM109 genes; 10 μg/mL asiatic acid): 6.50
- ER (expression ratio) gene yjaE (E. coli JM109 genes; 10 μg/mL asiatic acid): 2.00
- ER (expression ratio) gene yjiD (E. coli JM109 genes; 10 μg/mL asiatic acid): 7.46
- ER (expression ratio) gene yrbL (E. coli JM109 genes; 10 μg/mL asiatic acid): 2.64
- ER (expression ratio) gene b0829 (E. coli JM109 genes; 30 μg/mL asiatic acid): 2.46
- ER (expression ratio) gene b1729 (E. coli JM109 genes; 30 μg/mL asiatic acid): 2.30
- ER (expression ratio) gene b1963 (E. coli JM109 genes; 30 μg/mL asiatic acid): 2.30
- ER (expression ratio) gene b2332 (E. coli JM109 genes; 30 μg/mL asiatic acid): 2.30
- ER (expression ratio) gene b2420 (E. coli JM109 genes; 30 μg/mL asiatic acid): 2.14
- ER (expression ratio) gene b2531 (E. coli JM109 genes; 30 μg/mL asiatic acid): 2.14
- ER (expression ratio) gene b2670 (E. coli JM109 genes; 30 μg/mL asiatic acid): 2.64
- ER (expression ratio) gene b2834 (E. coli JM109 genes; 30 μg/mL asiatic acid): 2.00
- ER (expression ratio) gene bolA (E. coli JM109 genes; 30 μg/mL asiatic acid): 2.64
- ER (expression ratio) gene cbl (E. coli JM109 genes; 30 μg/mL asiatic acid): 13.00
- ER (expression ratio) gene cysA (E. coli JM109 genes; 30 μg/mL asiatic acid): 3.48
- ER (expression ratio) gene cysB (E. coli JM109 genes; 30 μg/mL asiatic acid): 4.29
- ER (expression ratio) gene cysC (E. coli JM109 genes; 30 μg/mL asiatic acid): 6.96
- ER (expression ratio) gene cysD (E. coli JM109 genes; 30 μg/mL asiatic acid): 6.50
- ER (expression ratio) gene cysH (E. coli JM109 genes; 30 μg/mL asiatic acid): 3.03
- ER (expression ratio) gene cysI (E. coli JM109 genes; 30 μg/mL asiatic acid): 3.25
- ER (expression ratio) gene cysJ (E. coli JM109 genes; 30 μg/mL asiatic acid): 4.00
- ER (expression ratio) gene cysK (E. coli JM109 genes; 30 μg/mL asiatic acid): 3.48
- ER (expression ratio) gene cysM (E. coli JM109 genes; 30 μg/mL asiatic acid): 3.25
- ER (expression ratio) gene cysN (E. coli JM109 genes; 30 μg/mL asiatic acid): 7.46
- ER (expression ratio) gene cysP (E. coli JM109 genes; 30 μg/mL asiatic acid): 4.92
- ER (expression ratio) gene cysU (E. coli JM109 genes; 30 μg/mL asiatic acid): 4.92
- ER (expression ratio) gene cysW (E. coli JM109 genes; 30 μg/mL asiatic acid): 4.00
- ER (expression ratio) gene dgt (E. coli JM109 genes; 30 μg/mL asiatic acid): 2.30
- ER (expression ratio) gene fliY (E. coli JM109 genes; 30 μg/mL asiatic acid): 3.25
- ER (expression ratio) gene ftn (E. coli JM109 genes; 30 μg/mL asiatic acid): 3.03
- ER (expression ratio) gene glgS (E. coli JM109 genes; 30 μg/mL asiatic acid): 2.30
- ER (expression ratio) gene iIvG_1 (E. coli JM109 genes; 30 μg/mL asiatic acid): 2.00
- ER (expression ratio) gene iIvL (E. coli JM109 genes; 30 μg/mL asiatic acid): 3.48
- ER (expression ratio) gene msrA (E. coli JM109 genes; 30 μg/mL asiatic acid): 2.64
- ER (expression ratio) gene nlpA (E. coli JM109 genes; 30 μg/mL asiatic acid): 9.85
- ER (expression ratio) gene pssR (E. coli JM109 genes; 30 μg/mL asiatic acid): 2.14
- ER (expression ratio) gene pstS (E. coli JM109 genes; 30 μg/mL asiatic acid): 2.00
- ER (expression ratio) gene sbp (E. coli JM109 genes; 30 μg/mL asiatic acid): 12.13
- ER (expression ratio) gene tauA (E. coli JM109 genes; 30 μg/mL asiatic acid): 2.00
- ER (expression ratio) gene yaeG (E. coli JM109 genes; 30 μg/mL asiatic acid): 4.00
- ER (expression ratio) gene yaiB (E. coli JM109 genes; 30 μg/mL asiatic acid): 2.64
- ER (expression ratio) gene ybgR (E. coli JM109 genes; 30 μg/mL asiatic acid): 2.46
- ER (expression ratio) gene ybiK (E. coli JM109 genes; 30 μg/mL asiatic acid): 5.66
- ER (expression ratio) gene yciW (E. coli JM109 genes; 30 μg/mL asiatic acid): 3.73
- ER (expression ratio) gene yedO (E. coli JM109 genes; 30 μg/mL asiatic acid): 2.83
- ER (expression ratio) gene yeeD (E. coli JM109 genes; 30 μg/mL asiatic acid): 2.30
- ER (expression ratio) gene yeeE (E. coli JM109 genes; 30 μg/mL asiatic acid): 2.14
- ER (expression ratio) gene ygbE (E. coli JM109 genes; 30 μg/mL asiatic acid): 5.28
- ER (expression ratio) gene yicG (E. coli JM109 genes; 30 μg/mL asiatic acid): 2.30
- ER (expression ratio) gene yicL (E. coli JM109 genes; 30 μg/mL asiatic acid): 2.83
- ER (expression ratio) gene yjaE (E. coli JM109 genes; 30 μg/mL asiatic acid): 2.14
- ER (expression ratio) gene yjiD (E. coli JM109 genes; 30 μg/mL asiatic acid): 9.85
- ER (expression ratio) gene yrbL (E. coli JM109 genes; 30 μg/mL asiatic acid): 2.46
